Experimental data as given in patent US5801178A, “Aniline derivative having polyunsaturated fatty acid residue and use thereof” (Nippon Shoji Kaish Ltd., priority 1995, dated 1998).

Columns and labels:
[1] = tested on: ACAT derived from rat liver; assay: Inhibitory activity against ACAT derived from rat liver microsome; assay type: biochemical; details: pH 7.4, 37° C., 30 minutes
Method: Inhibitory activity against ACAT derived from rat liver microsome
(§1) Using, as an enzyme source, the microsomal fractions prepared from rat liver in the manner described below under Preparation of Microsome, the inhibitory activity against ACAT in the microsome fractions was determined as in the following. The compound of the present invention was dissolved in dimethyl sulfoxide and used as a sample solution. [1-^14 C] […] Ethanol (1 ml) was added to stop the reaction, and n-hexane (4.5 ml) was added. The reaction mixture was centrifuged at 2,000 rpm for 2 minutes and the upper n-hexane layer was separated and recovered, whereby cholesterol oleate (reaction product) was extracted. n-Hexane was evaporated with a nitrogen gas and the residue was re-dissolved dissolved in n-hexane (50 μl), which was used as a sample for thin-layer chromatography. […] After developing, the spot of cholesterol oleate was colored with iodine. The spot was cut out and dissolved in a xylene scintillator (Aquasol-2, Daiichi Pure Chemicals Co., Ltd.). The amount of cholesterol oleate was determined using a liquid scintillation counter.
The liver was removed from a fasted rat and thoroughly perfused with 0.25M sucrose solution. The liver was weighed, minced with scissors or razor and placed in a Teflon homogenizer. The liver was homogenized with 9 volumes [9 ml per g (wet weight) of liver] of 0.25M sucrose solution or 50 mM Tris-HCl buffer (pH 7.5) containing 0.25M sucrose and 5 mM MgCl2. The homogenate was centrifuged at 8,000-10,000 g for 10-15 minutes. The obtained supernatant was centrifuged at 105,000 g for 60-90 minutes. The sediment obtained from this centrifugation was suspended in 150 mM potassium phosphate buffer (pH 7.4) to give a microsomal fraction.

[2] = molecular target: T1, ACAT derived from human macrophage (Homo sapiens, UniProt P35610); assay: Inhibitory activity against ACAT derived from human macrophage (microsomes of TPA-differentiated U937 cells); assay type: biochemical; details: for Selectivity: Table 1, rat liver ACAT IC50 / human macrophage ACAT IC50; for IC50: human macrophage (U937/TPA) microsome, pH 7.4, 37° C., 30 minutes
T1 construct: Using, as an enzyme source, microsomal fractions prepared in the manner described below under Preparation of Microsome from U937 cells; endogenous in cells; host or cells: U937 cells differentiated with TPA, microsomal fraction
T1 sequence (P35610 1-550): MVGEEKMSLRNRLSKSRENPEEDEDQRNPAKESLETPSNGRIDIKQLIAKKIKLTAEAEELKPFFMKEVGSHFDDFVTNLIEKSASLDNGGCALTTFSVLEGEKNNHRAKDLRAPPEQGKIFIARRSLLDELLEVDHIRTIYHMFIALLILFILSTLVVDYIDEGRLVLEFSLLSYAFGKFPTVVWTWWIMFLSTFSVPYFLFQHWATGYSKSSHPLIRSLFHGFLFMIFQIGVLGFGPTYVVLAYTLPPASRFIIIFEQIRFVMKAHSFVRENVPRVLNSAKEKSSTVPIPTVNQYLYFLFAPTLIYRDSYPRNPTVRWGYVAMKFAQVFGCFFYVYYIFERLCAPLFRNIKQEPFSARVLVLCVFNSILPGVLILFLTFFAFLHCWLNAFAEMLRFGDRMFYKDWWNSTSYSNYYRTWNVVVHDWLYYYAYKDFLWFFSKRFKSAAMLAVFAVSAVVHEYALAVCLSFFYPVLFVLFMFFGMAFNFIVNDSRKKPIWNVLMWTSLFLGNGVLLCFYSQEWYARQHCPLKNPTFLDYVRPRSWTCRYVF
Method: Inhibitory activity against ACAT derived from human macrophage
as §1, with “source,” for “source, the”, “prepared” for “prepared from rat liver”, “Microsome from U937 cells [human monocyte-derived cells known to differentiate into macrophages by the addition of TPA (12-O-tetradecanoylphorbol 13-acetate)] differentiated with TPA,” for “Microsome,”, “re-dissolved” for “re-dissolved dissolved”, “with” for “using”
The cells thus scraped and the culture solution were centrifuged at 3,000 rpm for 5 minutes, and the cell fractions obtained as precipitate were once freezed at -70° C. and preserved. The cells preserved at -70° C. were thawed and homogenized at 4° C. in a Teflon homogenizer. The homogenate was centrifuged at 12,000 g for 15 minutes. The precipitate fractions containing nuclea and mitochondria were removed and the obtained supernatant was further centrifuged at 100,000 g for 60 minutes. The supernatant was discarded, and the obtained precipitate fractions were suspended in 150 mM potassium phosphate buffer (pH 7.4) and used as a microsomal fraction.

[3] = Reduction of cholesterol in blood of cholesterol-loaded rats; assay type: in vivo, Male slc:SD (SPF) rats; details: serum total cholesterol; 90 mg/kg/day orally, five days; average of 8 rats; control taken as 100%
Excerpt: Reduction of cholesterol in blood of rats
Male slc:SD (SPF) rats (4 weeks of age weighing 70-90 g, Japan SLC Inc.) were randomly divided into 8 per group and bred for 3 days on a normal diet (solid diet for test animals, MF, manufactured by Oriental Yeast CO., LTD.). Then, the aforementioned diet supplemented with 5% cholesterol, 10% olive oil and 0.5% cholic acid was freely fed for 10 days. During the last five days, the test compound (Compounds 3-6, 8, 11 and 12) suspended in 0.5% aqueous methylcellulose solution was forcibly administered orally once a day in a dose of 10 ml/kg which contains 90 mg/kg/day of the test compound (total dose of the test compound being 450 mg/kg). The rats were fasted for 16 hours after the final administration and etherized. The blood was taken from the abdominal aorta, and serum was separated by centrifugation to determine the total cholesterol content in the serum. The control group was administered with 0.5% aqueous methylcellulose solution instead of the test compound suspended in 0.5% aqueous methylcellulose solution.
* is an average of 8 rats per group based on the cholesterol content in
blood of control which was taken as 100%.

[4] = Acute toxicity, oral, mice; assay type: in vivo, Male slc:ICR mice
Method: Male slc:ICR mice (4 weeks of age, Japan SLC Inc.) were bred for 7 days on a normal diet (solid diet for test animals, Labo MR stock-SLC, manufactured by Japan SLC Inc.). Then, the mice were fasted for 16 hours and divided into 5 per group. The mice were forcibly administered orally with the test compound (Compounds 4, 5 and 9-12) dissolved in corn oil. The mice were further bred on a normal diet for 14 days to observe acute toxicity.

Row | SMILES | IC50 [1] [µM] | Selectivity [2] | IC50 [2] [µM] | Reduction of cholesterol in cholesterol-loaded rats, %* [3] [%] | minimum lethal dose ([4]; mouse, in vivo, po, 20160 min) | minimum lethal dose ([4]; single oral administration in corn oil, mice, 14 days observation)
1 | CCC=CCC=CCC=CCC=CCC=CCCCC(=O)Nc1c(F)cc(F)cc1F [Compound 3, N-(2,4,6-trifluorophenyl)-5,8,11,14,17-eicosapentaenamide] | > 500 | > 1852 | 0.27 | 71 | – | –
2 | CCC=CCC=CCC=CCC=CCC=CCC=CCCC(=O)Nc1c(F)cc(F)cc1F [Compound 4, N-(2,4,6-trifluorophenyl)-4,7,10,13,16,19-docosahexaenamide] | > 500 | > 806 | 0.62 | 59 | ≥ 2,000 mg/kg | –
3 | CCC=CCC=CCC=CCC=CCC=CCCCC(=O)Nc1c(C)cc(C)cc1C [Compound 5, N-(2,4,6-trimethylphenyl)-5,8,11,14,17-eicosapentaenamide] | 43.1 | 47.9 | 0.9 | 57 | – | ≥ 2,000 mg/kg
4 | CCC=CCC=CCC=CCC=CCC=CCC=CCCC(=O)Nc1c(C)cc(C)cc1C [Compound 6, N-(2,4,6-trimethylphenyl)-4,7,10,13,16,19-docosahexaenamide] | > 500 | > 3333 | 0.15 | 68 | – | –
5 | CCC=CCC=CCC=CCC=CCC=CCC=CCCC(=O)Nc1c(C)cccc1C [Compound 8, N-(2,6-dimethylphenyl)-4,7,10,13,16,19-docosahexaenamide] | 73.9 | 264 | 0.28 | 77 | – | –
6 | CCC=CCC=CCC=CCC=CCC=CCCCC(=O)Nc1c(C(C)C)cccc1C(C)C [Compound 11, N-(2,6-diisopropylphenyl)-5,8,11,14,17-eicosapentaenamide] | 2.4 | 247 | 0.0097 | 78 | – | –
